Measurements reported in PMC6270304, “Synthesis, Structure and Cytotoxic Activity of New Acetylenic Derivatives of Betulin” (Molecules, 2013).
Values after ≈ are worked out from the molar mass of the structure shown.

What was measured:
[1] = Antiproliferative assay in vitro (SRB); format: cell-based, mouse; conditions: mouse; Balb3T3 normal fibroblasts; SRB; Neg = negative in the concentration used; read-out: Cytotoxic activity IC50, Murine Balb3T3
Method: (§1) Cytotoxic activities of all newly synthesized compounds including betulin (1) were tested in SRB or MTT (in the case of leukemia cells) assay for their antiproliferative activity in vitro against three human cancer cell lines: SW707 (colorectal adenocarcinoma), CCRF/CEM (leukemia), T47D (breast cancer), and murine leukemia P388 as well as Balb3T3 normal fibroblasts cell lines. […] A value of less than 4 μg/mL was considered as an antiproliferative activity criterion for synthetic compounds [31].
(§2) The following established in vitro cell lines were applied: SW707 (human colorectal adenocarcinoma), CCRF/CEM (human leukemia), T47D (human breast cancer), P388 (mouse leukemia) and Balb3T3 (normal mouse fibroblasts). All lines were obtained from the American Type Culture Collection (Rockville, MD, USA) and maintained at the Cell Culture Collection of the Institute of Immunology and Experimental Therapy (Wroclaw, Poland).
(§3) Twenty-four hours before addition of the tested agents, the cells were plated in 96-well plates (Sarstedt, Numbrecht, Germany) at a density of 10^4 cells per well in 100 μL of culture medium. The cells were cultured in the opti-MEM medium supplemented with 2 mM glutamine (Gibco, Grand Island, NY, USA), streptomycin (50 μg/mL), penicillin (50 U/mL) (both antibiotics from Polfa, Tarchomin, Poland) and 5% fetal calf serum (Gibco). The cell cultures were maintained at 37 °C in humid atmosphere saturated with 5% CO2.
(§4) The compounds were dissolved in DMSO and culture medium (1:9) to the concentration of 1 mg/mL, and subsequently diluted in culture medium to reach the required concentrations (ranging from […]).
(§5) The in vitro cytotoxic effect of all agents was examined using the SRB assay for adherent cells and MTT assay for leukemia cells as described by Wietrzyk et al.. Each compound in given concentration was tested in triplicates in each experiment, which was repeated 3–5 times.

[2] = tested on: SW707 (human colorectal adenocarcinoma); assay: Antiproliferative assay in vitro (SRB); format: cell-based
Method: as §1, §2, §3, §4, §5

[3] = tested on: T47D (human breast cancer); assay: Antiproliferative assay in vitro (SRB); format: cell-based
Method: as §1, §2, §3, §4, §5

[4] = tested on: CCRF/CEM (human leukemia); assay: Antiproliferative assay in vitro (MTT); format: cell-based; conditions: Homo sapiens, CCRF-CEM, read-out: Cytotoxic activity IC50, Human CCRF/CEM
Method: as §1, §2, §3, §4, §5

P388 (mouse leukemia) = assay: Antiproliferative assay in vitro (MTT); format: cell-based
Method: as §1, §2, §3, §4, §5

[5] = tested on: investigated cancer cell lines (T47D, CCRF/CEM, SW707, P388, Balb3T3); assay: cells; format: cell-based, human and murine
Method: as §1, §2, §3, §4, §5

[6] = tested on: Balb3T3 (normal mouse fibroblasts); assay: Antiproliferative assay in vitro (SRB); format: cell-based
Method: as §1, §2, §3, §4, §5

SMILES | IC50 [1] [µg/mL] | IC50 ([2]; Homo sapiens, SW707, read-out: Cytotoxic activity IC50, Human SW707) [µg/mL] | IC50 ([3]; Homo sapiens, T47D, read-out: Cytotoxic activity IC50, Human T47D) [µg/mL] | IC50 [4] [µg/mL] | IC50 (P388 (mouse leukemia); Mus musculus, P388, read-out: Cytotoxic activity IC50, Murine P388) [µg/mL] | selectivity index (SI) (P388 (mouse leukemia); ratio IC50 of normal fibroblast (Balb3T3) / IC50 on P388) | IC50 ([5]; Mus musculus, all cell lines except leukemia P388, read-out: IC50 values range over investigated cell lines) [µg/mL] | Cytotoxic activity IC50, Human SW707 [2] | Cytotoxic activity IC50, Human T47D [3] | Cytotoxic activity IC50, Murine Balb3T3 [6] | melting point [°C] | Cytotoxic activity IC50, Murine P388 (P388 (mouse leukemia)) | cytotoxic activity in words [5]
C=C(C)[C@@H]1CC[C@]2(CO)CC[C@]3(C)[C@H](CC[C@@H]4[C@@]5(C)CC[C@H](O)C(C)(C)[C@@H]5CC[C@]43C)[C@@H]12 [Compound 1, lup-20(29)-ene-3β,28-diol, reference compound] | 47.3 ± 7.9 (≈ 107 µM) | 22.9 ± 15.4 (≈ 51.7 µM) | 32.4 ± 10.7 (≈ 73.2 µM) | 10.9 ± 5.5 (≈ 24.6 µM) | 5.5 ± 3.3 (≈ 12.4 µM) | 8.6 | 10.9 to 47.3 (≈ 24.6 to 107 µM) |  |  |  |  |  | 
C=C(C)C1CC[C@]2(COC(=O)C#Cc3ccccc3)CC[C@]3(C)C(CCC4[C@@]5(C)CC[C@H](O)C(C)(C)C5CC[C@]43C)C12 (stereo partly drawn) [Compound 5b, 28-O-Phenylpropynoylbetulin] |  |  |  | 49 ± 9.8 (≈ 85.8 µM) |  |  |  | Neg | Neg | Neg | 204 to 206 | Neg | inactive
C=C(C)C1CC[C@]2(COC(=O)C#Cc3ccccc3)CC[C@]3(C)C(CCC4[C@@]5(C)CC[C@H](OC(=O)C#Cc6ccccc6)C(C)(C)C5CC[C@]43C)C12 (stereo partly drawn) [Compound 6b, 3,28-O,O'-Di(phenylpropynoyl)betulin] |  |  |  | 66 ± 2.8 (≈ 94.4 µM) |  |  |  | Neg | Neg | Neg | 91 to 92 | Neg | inactive
